# PMC10310857 (Nature Communications, 2023)
# Biological target: Pst_13661 (Puccinia striiformis f. sp. tritici, UniProt A0A0L0V0Y3, T32S)
# Assay type: biochemical
# Settings: 100 µM
smiles,measurement,value
"O=C(NO)c1ccccc1 [Compound 1, benzohydroxamic acid]",Inhibition Rate Pst_13661 Mean,100.8%
